Experimental data as given in ChEMBL document CHEMBL4507277.

Columns and labels:
[1] = system: Tyrosine-protein kinase ABL1 (Homo sapiens), P00519 [T315I]; settings: Compound concentration 1000.0 nM
[2] = molecular target: RAC-alpha serine/threonine-protein kinase (Homo sapiens) (UniProt P31749); settings: Compound concentration 1000.0 nM
[3] = system: ALK tyrosine kinase receptor (Homo sapiens), Q9UM73 [L1196M]; settings: Compound concentration 1000.0 nM
[4] = molecular target: Tyrosine-protein kinase Blk (Homo sapiens) (UniProt P51451); settings: Compound concentration 1000.0 nM
[5] = molecular target: Bone morphogenetic protein receptor type-1B (Homo sapiens) (UniProt O00238); settings: Compound concentration 1000.0 nM
[6] = molecular target: Cyclin-dependent kinase 4 (Homo sapiens) (UniProt P11802); settings: Compound concentration 1000.0 nM
[7] = molecular target: Cyclin-dependent kinase-like 1 (Homo sapiens) (UniProt Q00532); settings: Compound concentration 1000.0 nM
[8] = molecular target: Citron Rho-interacting kinase (Homo sapiens) (UniProt O14578); settings: Compound concentration 1000.0 nM
[9] = molecular target: Serine/threonine-protein kinase MRCK gamma (Homo sapiens) (UniProt Q6DT37); settings: Compound concentration 1000.0 nM
[10] = molecular target: Dual specificity tyrosine-phosphorylation-regulated kinase 2 (Homo sapiens) (UniProt Q92630); settings: Compound concentration 1000.0 nM
[11] = system: Epidermal growth factor receptor (Homo sapiens), P00533 [UNDEFINED MUTATION]; settings: Compound concentration 1000.0 nM
[12] = molecular target: Ephrin type-A receptor 8 (Homo sapiens) (UniProt P29322); settings: Compound concentration 1000.0 nM
[13] = molecular target: Ephrin type-B receptor 3 (Homo sapiens) (UniProt P54753); settings: Compound concentration 1000.0 nM
[14] = molecular target: Receptor tyrosine-protein kinase erbB-3 (Homo sapiens) (UniProt P21860); settings: Compound concentration 1000.0 nM
[15] = molecular target: Mitogen-activated protein kinase 3 (Homo sapiens) (UniProt P27361); settings: Compound concentration 1000.0 nM
[16] = system: Receptor-type tyrosine-protein kinase FLT3 (Homo sapiens), P36888 [R834Q]; settings: Compound concentration 1000.0 nM
[17] = molecular target: Tyrosine-protein kinase FRK (Homo sapiens) (UniProt P42685); settings: Compound concentration 1000.0 nM
[18] = molecular target: Tyrosine-protein kinase HCK (Homo sapiens) (UniProt P08631); settings: Compound concentration 1000.0 nM
[19] = molecular target: Mitogen-activated protein kinase kinase kinase kinase 1 (Homo sapiens) (UniProt Q92918); settings: Compound concentration 1000.0 nM
[20] = molecular target: Inhibitor of nuclear factor kappa-B kinase subunit beta (Homo sapiens) (UniProt O14920); settings: Compound concentration 1000.0 nM
[21] = molecular target: Tyrosine-protein kinase JAK3 (Homo sapiens) (UniProt P52333); settings: Compound concentration 1000.0 nM
Tyrosine-protein kinase JAK3 (Homo sapiens), sequence (P52333 whole entry): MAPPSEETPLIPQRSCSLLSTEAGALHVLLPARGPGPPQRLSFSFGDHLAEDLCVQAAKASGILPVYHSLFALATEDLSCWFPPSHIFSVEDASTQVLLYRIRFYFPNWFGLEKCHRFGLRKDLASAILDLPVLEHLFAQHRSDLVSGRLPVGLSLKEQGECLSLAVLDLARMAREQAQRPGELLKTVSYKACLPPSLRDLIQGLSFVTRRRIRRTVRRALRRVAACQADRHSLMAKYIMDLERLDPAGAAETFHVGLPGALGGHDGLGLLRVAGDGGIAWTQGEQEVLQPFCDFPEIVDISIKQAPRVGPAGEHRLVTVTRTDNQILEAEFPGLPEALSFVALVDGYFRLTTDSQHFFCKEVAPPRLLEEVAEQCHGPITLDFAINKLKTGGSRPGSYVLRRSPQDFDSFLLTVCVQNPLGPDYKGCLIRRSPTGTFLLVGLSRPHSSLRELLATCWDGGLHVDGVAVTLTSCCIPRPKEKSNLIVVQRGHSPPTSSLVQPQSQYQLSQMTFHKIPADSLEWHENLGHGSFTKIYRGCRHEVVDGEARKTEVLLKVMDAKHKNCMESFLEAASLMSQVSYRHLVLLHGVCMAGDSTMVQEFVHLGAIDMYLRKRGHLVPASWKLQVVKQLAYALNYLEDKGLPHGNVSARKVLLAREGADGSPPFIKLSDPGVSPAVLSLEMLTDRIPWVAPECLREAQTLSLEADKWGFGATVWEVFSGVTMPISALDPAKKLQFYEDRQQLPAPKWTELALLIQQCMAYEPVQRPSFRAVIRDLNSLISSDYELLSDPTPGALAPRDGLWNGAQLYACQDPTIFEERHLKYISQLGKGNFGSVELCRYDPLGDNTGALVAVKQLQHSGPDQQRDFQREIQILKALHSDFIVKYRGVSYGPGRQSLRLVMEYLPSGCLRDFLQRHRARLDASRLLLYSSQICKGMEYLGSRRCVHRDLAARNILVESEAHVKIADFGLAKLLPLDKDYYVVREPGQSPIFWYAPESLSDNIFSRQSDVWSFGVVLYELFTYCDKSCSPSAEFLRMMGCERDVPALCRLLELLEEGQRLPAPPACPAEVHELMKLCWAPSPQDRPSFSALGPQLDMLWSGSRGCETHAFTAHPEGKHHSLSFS

[22] = system: Mast/stem cell growth factor receptor Kit (Homo sapiens), P10721 [V559D,T670I]; settings: Compound concentration 1000.0 nM
[23] = molecular target: Mitogen-activated protein kinase kinase kinase kinase 2 (Homo sapiens) (UniProt Q12851); settings: Compound concentration 1000.0 nM
[24] = molecular target: MAP kinase-activated protein kinase 5 (Homo sapiens) (UniProt Q8IW41); settings: Compound concentration 1000.0 nM
MAP kinase-activated protein kinase 5 (Homo sapiens), sequence (Q8IW41 whole entry): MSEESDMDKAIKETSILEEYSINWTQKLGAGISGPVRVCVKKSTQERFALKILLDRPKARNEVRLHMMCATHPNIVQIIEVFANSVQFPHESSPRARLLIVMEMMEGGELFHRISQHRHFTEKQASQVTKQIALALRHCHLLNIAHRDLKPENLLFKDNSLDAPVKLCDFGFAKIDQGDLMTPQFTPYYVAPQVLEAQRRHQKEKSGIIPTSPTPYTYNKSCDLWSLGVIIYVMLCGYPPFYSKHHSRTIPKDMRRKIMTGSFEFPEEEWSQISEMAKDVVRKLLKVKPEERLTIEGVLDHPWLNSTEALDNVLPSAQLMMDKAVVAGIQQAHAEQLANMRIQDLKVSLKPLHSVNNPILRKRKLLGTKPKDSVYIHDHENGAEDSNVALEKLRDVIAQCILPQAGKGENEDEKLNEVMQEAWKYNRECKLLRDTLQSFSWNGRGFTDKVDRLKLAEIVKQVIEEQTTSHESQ

[25] = molecular target: Serine/threonine-protein kinase MRCK beta (Homo sapiens) (UniProt Q9Y5S2); settings: Compound concentration 1000.0 nM
[26] = molecular target: Serine/threonine-protein kinase mTOR (Homo sapiens) (UniProt P42345); settings: Compound concentration 1000.0 nM
[27] = molecular target: Myosin light chain kinase family member 4 (Homo sapiens) (UniProt Q86YV6); settings: Compound concentration 1000.0 nM
[28] = molecular target: Serine/threonine-protein kinase Nek4 (Homo sapiens) (UniProt P51957); settings: Compound concentration 1000.0 nM
[29] = molecular target: Mitogen-activated protein kinase 14 (Homo sapiens) (UniProt Q16539); settings: Compound concentration 1000.0 nM
[30] = molecular target: Platelet-derived growth factor receptor alpha (Homo sapiens) (UniProt P16234); settings: Compound concentration 1000.0 nM
[31] = molecular target: Cyclin-dependent kinase 14 (Homo sapiens) (UniProt O94921); settings: Compound concentration 1000.0 nM
Cyclin-dependent kinase 14 (Homo sapiens), sequence (O94921 whole entry): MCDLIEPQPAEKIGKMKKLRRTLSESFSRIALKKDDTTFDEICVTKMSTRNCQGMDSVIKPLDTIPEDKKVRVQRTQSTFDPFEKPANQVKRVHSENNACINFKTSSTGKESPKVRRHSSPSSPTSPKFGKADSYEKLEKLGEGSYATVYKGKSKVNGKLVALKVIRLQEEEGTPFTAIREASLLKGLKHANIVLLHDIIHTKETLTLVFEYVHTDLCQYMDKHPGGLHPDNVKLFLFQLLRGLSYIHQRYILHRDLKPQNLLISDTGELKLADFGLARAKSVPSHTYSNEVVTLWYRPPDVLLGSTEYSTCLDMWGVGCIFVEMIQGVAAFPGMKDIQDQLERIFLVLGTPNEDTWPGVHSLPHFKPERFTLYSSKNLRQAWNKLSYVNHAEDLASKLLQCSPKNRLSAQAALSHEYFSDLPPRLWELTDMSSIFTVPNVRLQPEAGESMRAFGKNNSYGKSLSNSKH

[32] = molecular target: Phosphatidylinositol 4-phosphate 5-kinase type-1 gamma (Homo sapiens) (UniProt O60331); settings: Compound concentration 1000.0 nM
Phosphatidylinositol 4-phosphate 5-kinase type-1 gamma (Homo sapiens), sequence (O60331 whole entry): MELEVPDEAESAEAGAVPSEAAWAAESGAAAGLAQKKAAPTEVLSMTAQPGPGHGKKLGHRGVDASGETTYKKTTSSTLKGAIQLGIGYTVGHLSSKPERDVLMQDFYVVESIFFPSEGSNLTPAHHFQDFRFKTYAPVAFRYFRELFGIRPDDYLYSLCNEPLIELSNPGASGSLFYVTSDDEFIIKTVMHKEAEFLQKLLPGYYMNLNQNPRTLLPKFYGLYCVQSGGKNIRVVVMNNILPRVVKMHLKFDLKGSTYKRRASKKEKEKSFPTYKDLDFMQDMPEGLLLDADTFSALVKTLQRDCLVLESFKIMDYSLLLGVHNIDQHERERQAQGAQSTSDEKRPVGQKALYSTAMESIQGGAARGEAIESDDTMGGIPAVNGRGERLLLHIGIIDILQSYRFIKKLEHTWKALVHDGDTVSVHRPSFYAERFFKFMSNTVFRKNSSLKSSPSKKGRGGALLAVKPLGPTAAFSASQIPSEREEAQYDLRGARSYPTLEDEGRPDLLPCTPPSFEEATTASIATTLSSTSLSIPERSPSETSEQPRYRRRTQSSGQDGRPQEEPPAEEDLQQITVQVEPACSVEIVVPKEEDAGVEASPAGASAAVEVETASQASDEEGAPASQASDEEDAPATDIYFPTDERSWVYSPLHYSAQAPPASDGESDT

[33] = molecular target: STE20-like serine/threonine-protein kinase (Homo sapiens) (UniProt Q9H2G2); settings: Compound concentration 1000.0 nM
[34] = molecular target: NT-3 growth factor receptor (Homo sapiens) (UniProt Q16288); settings: Compound concentration 1000.0 nM
[35] = molecular target: Tyrosine-protein kinase receptor TYRO3 (Homo sapiens) (UniProt Q06418); settings: Compound concentration 1000.0 nM
[36] = molecular target: 5-hydroxytryptamine receptor 2B (Homo sapiens) (UniProt P41595); settings: Compound concentration 10.0 uM
[37] = molecular target: T1, 5-hydroxytryptamine receptor 3A (Homo sapiens) (UniProt P46098); settings: Compound concentration 10.0 uM
T1 sequence (whole entry): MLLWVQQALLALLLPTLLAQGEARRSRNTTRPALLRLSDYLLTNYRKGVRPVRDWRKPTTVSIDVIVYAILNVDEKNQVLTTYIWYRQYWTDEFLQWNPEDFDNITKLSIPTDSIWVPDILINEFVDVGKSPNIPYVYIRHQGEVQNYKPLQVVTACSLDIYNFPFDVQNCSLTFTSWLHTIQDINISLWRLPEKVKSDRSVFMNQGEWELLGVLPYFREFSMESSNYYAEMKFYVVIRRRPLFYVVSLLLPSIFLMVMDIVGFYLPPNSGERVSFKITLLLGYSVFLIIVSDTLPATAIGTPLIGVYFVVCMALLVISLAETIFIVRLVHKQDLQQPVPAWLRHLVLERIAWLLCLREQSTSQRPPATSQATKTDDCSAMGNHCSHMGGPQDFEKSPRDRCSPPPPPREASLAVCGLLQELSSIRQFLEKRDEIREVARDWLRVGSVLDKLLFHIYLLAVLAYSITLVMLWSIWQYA

[38] = molecular target: Alpha-2B adrenergic receptor (Homo sapiens) (UniProt P18089); settings: Compound concentration 10.0 uM
[39] = molecular target: Beta-2 adrenergic receptor (Homo sapiens) (UniProt P07550); settings: Compound concentration 10.0 uM

ALK tyrosine kinase receptor (Homo sapiens), Q9UM73 [L1196M], sequence (Q9UM73 whole entry L1196M, looked up): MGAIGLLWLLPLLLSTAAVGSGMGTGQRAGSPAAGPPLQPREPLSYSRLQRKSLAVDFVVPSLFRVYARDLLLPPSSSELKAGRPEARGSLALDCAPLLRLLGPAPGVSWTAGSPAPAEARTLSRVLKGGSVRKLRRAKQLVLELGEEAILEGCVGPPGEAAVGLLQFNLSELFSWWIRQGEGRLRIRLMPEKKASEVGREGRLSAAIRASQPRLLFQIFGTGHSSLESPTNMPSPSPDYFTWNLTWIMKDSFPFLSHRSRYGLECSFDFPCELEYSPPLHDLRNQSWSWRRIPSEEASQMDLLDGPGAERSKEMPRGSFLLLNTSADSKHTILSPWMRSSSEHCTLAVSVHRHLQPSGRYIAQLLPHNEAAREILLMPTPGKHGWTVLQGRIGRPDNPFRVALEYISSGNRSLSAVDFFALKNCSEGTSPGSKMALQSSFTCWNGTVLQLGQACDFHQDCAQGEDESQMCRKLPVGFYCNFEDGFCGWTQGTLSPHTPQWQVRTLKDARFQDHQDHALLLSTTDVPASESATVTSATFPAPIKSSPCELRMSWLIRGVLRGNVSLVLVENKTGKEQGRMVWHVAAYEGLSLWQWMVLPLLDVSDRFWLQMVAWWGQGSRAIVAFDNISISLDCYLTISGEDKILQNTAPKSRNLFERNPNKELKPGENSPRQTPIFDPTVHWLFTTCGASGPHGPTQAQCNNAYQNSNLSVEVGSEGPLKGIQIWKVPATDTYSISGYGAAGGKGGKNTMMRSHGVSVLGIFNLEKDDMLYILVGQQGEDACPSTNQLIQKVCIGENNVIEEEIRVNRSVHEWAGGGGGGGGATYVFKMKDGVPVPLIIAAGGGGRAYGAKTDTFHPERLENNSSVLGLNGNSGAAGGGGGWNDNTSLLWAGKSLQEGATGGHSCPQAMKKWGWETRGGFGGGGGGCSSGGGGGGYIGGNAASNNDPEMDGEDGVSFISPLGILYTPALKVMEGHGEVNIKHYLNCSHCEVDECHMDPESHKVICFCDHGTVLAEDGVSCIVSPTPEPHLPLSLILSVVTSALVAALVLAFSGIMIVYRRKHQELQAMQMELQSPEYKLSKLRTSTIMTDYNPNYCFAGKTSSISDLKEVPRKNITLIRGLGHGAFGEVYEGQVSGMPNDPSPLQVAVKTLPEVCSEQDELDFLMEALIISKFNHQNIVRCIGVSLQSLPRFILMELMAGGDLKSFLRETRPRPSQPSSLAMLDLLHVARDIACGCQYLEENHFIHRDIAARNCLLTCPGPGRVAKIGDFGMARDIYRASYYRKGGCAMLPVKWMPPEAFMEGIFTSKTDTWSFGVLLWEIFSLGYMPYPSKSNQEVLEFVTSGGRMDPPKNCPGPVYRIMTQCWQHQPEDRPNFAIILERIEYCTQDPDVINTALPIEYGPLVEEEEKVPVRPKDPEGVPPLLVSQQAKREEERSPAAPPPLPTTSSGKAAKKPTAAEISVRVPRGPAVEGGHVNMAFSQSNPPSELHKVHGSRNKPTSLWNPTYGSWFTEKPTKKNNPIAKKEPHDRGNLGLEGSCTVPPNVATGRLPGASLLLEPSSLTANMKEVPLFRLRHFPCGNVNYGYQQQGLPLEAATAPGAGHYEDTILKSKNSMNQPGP
RAC-alpha serine/threonine-protein kinase (Homo sapiens), sequence (P31749 whole entry): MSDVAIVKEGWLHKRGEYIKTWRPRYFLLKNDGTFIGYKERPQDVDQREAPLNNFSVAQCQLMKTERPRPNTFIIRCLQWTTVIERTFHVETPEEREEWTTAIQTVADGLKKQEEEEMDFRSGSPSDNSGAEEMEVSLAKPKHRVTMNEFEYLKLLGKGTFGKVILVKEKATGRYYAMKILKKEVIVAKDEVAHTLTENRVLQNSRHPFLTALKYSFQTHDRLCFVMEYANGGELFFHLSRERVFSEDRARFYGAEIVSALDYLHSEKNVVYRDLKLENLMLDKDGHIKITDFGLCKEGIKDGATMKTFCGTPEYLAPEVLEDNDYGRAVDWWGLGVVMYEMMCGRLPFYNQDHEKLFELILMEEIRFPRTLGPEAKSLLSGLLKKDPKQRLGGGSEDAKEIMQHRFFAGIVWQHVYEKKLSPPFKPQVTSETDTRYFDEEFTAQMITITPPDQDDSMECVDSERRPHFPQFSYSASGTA

CCS(=O)(=O)c1cc2cc(C[C@@](O)(CC(C)(C)c3ccc(F)cc3C(N)=O)C(F)(F)F)[nH]c2cn1
inactive: residual activity [1] 74% | residual activity [2] 86% | residual activity [3] 100% | residual activity [4] 100% | residual activity [5] 55% | residual activity [6] 81% | residual activity [7] 78% | residual activity [8] 96% | residual activity [9] 96% | residual activity [10] 83% | residual activity [11] 94% | residual activity [12] 100% | residual activity [13] 92% | residual activity [14] 100% | residual activity [15] 98% | residual activity [16] 78% | residual activity [17] 100% | residual activity [18] 100% | residual activity [19] 100% | residual activity [20] 83% | residual activity [21] 76% | residual activity [22] 100% | residual activity [23] 80% | residual activity [24] 81% | residual activity [25] 99% | residual activity [26] 100% | residual activity [27] 100% | residual activity [28] 91% | residual activity [29] 97% | residual activity [30] 99% | residual activity [31] 100% | residual activity [32] 98% | residual activity [33] 88% | residual activity [34] 82% | residual activity [35] 92% | inhibition [36] -7.85% | inhibition [37] 21.1% | inhibition [38] 6.5% | inhibition [39] 15.2%

CCS(=O)(=O)c1cc2cc(C[C@](O)(CC(C)(C)c3ccc(F)cc3C(N)=O)C(F)(F)F)[nH]c2cn1
inactive: residual activity [1] 85% | residual activity [2] 100% | residual activity [3] 87% | residual activity [4] 100% | residual activity [5] 100% | residual activity [6] 100% | residual activity [7] 81% | residual activity [8] 100% | residual activity [9] 100% | residual activity [10] 92% | residual activity [11] 89% | residual activity [12] 82% | residual activity [13] 100% | residual activity [14] 100% | residual activity [15] 93% | residual activity [16] 100% | residual activity [17] 80% | residual activity [18] 100% | residual activity [19] 100% | residual activity [20] 91% | residual activity [21] 72% | residual activity [22] 100% | residual activity [23] 96% | residual activity [24] 93% | residual activity [25] 100% | residual activity [26] 77% | residual activity [27] 100% | residual activity [28] 85% | residual activity [29] 100% | residual activity [30] 82% | residual activity [31] 100% | residual activity [32] 100% | residual activity [33] 100% | residual activity [34] 94% | residual activity [35] 81% | inhibition [36] 26.1% | inhibition [37] 32.2% | inhibition [38] 24.7% | inhibition [39] 4.71%
